Data taken from patent publication US10627412B2, “Periodontal-disease-specific peptide, and treatment and diagnosis of periodontal disease using same” (KAGOSHIMA UNIVERSITY, priority 2010, dated 2020).

What was measured:
[1] = system: ERK and Akt in gingival epithelial cell (GEC); assay: Activation of serine/threonine kinases in stimulated gingival epithelial cell; type: cell-based; details: stimulation 15 min-2 hr
Protocol: (§1) Gingiva fibroblasts were stimulated with peptide 1 (K6F), recombinant Keratin 6 (RK6, Rec-K6) or scramble peptide (Sc) for 2-24 hr, and the expression levels of MMP-2, MMP-3, MCP-1, IL-6, IL-8 were measured by Western blot analysis. […] Then, gingiva fibroblast (GF) and gingival epithelial cell (GEC) were stimulated with peptide 1 (K6F) or scramble peptide (Sc), respectively, for 15 min-2 hr, and phosphorylation of p38 in GF, as well as expression of IκB-α and phosphorylation of p65 NFκB and activation of representative serine/threonine kinase in GEC were examined.

[2] = system: p38 MAPK, IκB-α, p65 NFκB in gingiva fibroblast (GF); assay: p38 MAPK, IκB-α and p65 NFκB signalling in stimulated gingiva fibroblast; type: cell-based; details: stimulation 15 min-2 hr
Protocol: as §1, with “as well as expression of IκB-α and phosphorylation of p65 NFκB and activation of representative” left out

[3] = system: lymphocytes obtained from these rats; assay: Lymphoblast formation in cultured lymphocytes of injected rats; type: cell-based, rat
Protocol: (§2) PBS, full-length human Keratin 6 (FLK6) or peptide 1 (K6F) was administered by intragingival injection to the lower left jaw of rats. […] The lymphocytes obtained from these rats were stimulated with FLK6 or K6F and cultured. […] In addition, peripheral blood mononuclear leukocytes were obtained from these rats, stimulated with K6F or scramble peptide (Sc), and expression of RANKL and CD3 were examined by FACS analysis. […] Moreover, alveolar bone destruction in these rats was examined.

[4] = system: Lymphocytes obtained from periodontitis patients and healthy subjects (T cell proliferation); assay: Drug-induced lymphocyte stimulation test (DLST); type: cell-based, human; details: for T cell proliferation induction potency in DLST: periodontitis patients as compared to healthy subjects
Source text: Lymphocytes obtained from periodontitis patients and healthy subjects were subjected to a drug-induced lymphocyte stimulation test (DLST) using full-length human Keratin 6 and peptide 1 (fragment thereof) (periodontitis patients: N=22, healthy subjects: N=5).

[5] = system: RANKL mRNA in lymphocytes; assay: RT-PCR of RANKL mRNA in lymphocytes of periodontitis patients; type: cell-based, human; details: stimulation of lymphocytes of periodontitis patients
gingiva fibroblast (GF) = assay: Binding of FITC-labeled peptide to various cells, confocal microscope; details: gingiva fibroblast compared to other cells
Source text: Various cells were stimulated with FITC-labeled peptide 1 (K6F, P-1), observed under a confocal microscope, and the binding level to K6F was shown by percentage higher than that of the control cell (FIG. 14).

[6] = system: peripheral blood mononuclear leukocytes; assay: FACS analysis of RANKL and CD3 in peripheral blood mononuclear leukocytes of injected rats; type: cell-based, rat; details: in vitro stimulation of cells of rats injected with FL6 or K6F
Protocol: as §2

RANKL in lymphocytes = assay: RANKL expression in stimulated lymphocytes, Western blot with anti RANKL antibody; type: cell-based, human
Protocol: Blood samples were collected from progressive (untreated) periodontitis patients, periodontitis patients during treatment and periodontitis patients after treatment to obtain lymphocytes, stimulated with full-length human Keratin 6 (K6; 2 or 4 μg/ml) or peptide 1 (K6F; 60 or 30 μg/ml), expression of RANKL in lymphocytes was examined by Western blot analysis using anti RANKL antibody. […] Fluorescent staining was performed to examine induction of lymphoblast formation by the stimulation with full-length human Keratin 6 or peptide 1. As a result, it was correlated well with the expression of RANKL mRNA (FIG. 8C).

rats = assay: Intragingival injection to the lower left jaw of rats; type: in vivo, rat; details: for tumentia of lower jaw lymph node (Lt): injected left side, intragingival injection; for alveolar bone destruction: lower jaw of injected rats
Protocol: as §2

[7] = system: T cells obtained from peripheral blood of the periodontal disease patients; assay: Differentiation of stimulated T cells into polynuclear giant cells, tissue staining; type: cell-based, human; details: stimulation
Source text: T cells obtained from peripheral blood of the periodontal disease patients and healthy subject were stimulated with full-length human Keratin 6 (FL) or peptide 1 (K6F), and differentiation into polynuclear giant cells was observed by tissue staining.

[8] = system: Peripheral blood monocytes derived from severe periodontitis patients; assay: Immunostaining of peripheral blood monocytes with anti-RANKL and anti-CD3 antibody; type: cell-based, human; details: stimulation of cells from severe periodontitis patients
Source text: Peripheral blood monocytes derived from severe periodontitis patients were stimulated with full-length human Keratin 6 (FL) or peptide 1 (K6F), and immunostained with anti-RANKL antibody and anti-CD3 antibody.

[9] = system: MMP-2, MMP-3, MCP-1, IL-6, IL-8 in gingiva fibroblasts; assay: Cytokine and chemokine expression in stimulated gingiva fibroblasts, Western blot; type: cell-based; details: stimulation 2-24 hr
Protocol: as §1

[10] = system: T cells obtained from peripheral blood of the periodontal disease patients; assay: Pit formation assay on dentin section; type: cell-based, human; details: stimulation
[11] = in vitro stimulation of lymphocytes of injected rats
[12] = lymphocytes of rats injected with the substance
[13] = lymphocytes of healthy subject (Non-PD) and periodontitis patients after treatment (Maintenance Phase)
[14] = lymphocytes of untreated periodontitis patients and patients during treatment, K6 2 or 4 μg/ml, K6F 60 or 30 μg/ml

| Molecule | activation of representative serine/threonine kinase [1] | phosphorylation (activation) of p38 MAPK ([2]; GF) | degradation of IκB and activation of p65 NFκB [2] | Lymphoblast formation [3, 11] | Lymphoblast formation [3, 12] | DLST positive samples (T cell proliferation induced) / samples tested ([4]; Healthy subject, N=5) | DLST positive samples (T cell proliferation induced) / samples tested ([4]; Periodontitis patients, N=22) | T cell proliferation induction potency in DLST [4] | expression of RANKL mRNA [5] | binding level to cells, percentage higher than that of the control cell (gingiva fibroblast (GF)) | expression of RANKL and CD3 [6] | expression of RANKL in lymphocytes (RANKL in lymphocytes; [13]) | expression of RANKL in lymphocytes (RANKL in lymphocytes; [14]) | tumentia of lower jaw lymph node (Lt) (rats) | alveolar bone destruction (rats) | differentiation into polynuclear giant cells [7] | CD positive cells (T cells) that express RANKL [8] | expression levels of MMP-2, MMP-3, MCP-1, IL-6, IL-8 [9] | bone resorption pit formation [10] |
| --- | --- | --- | --- | --- | --- | --- | --- | --- | --- | --- | --- | --- | --- | --- | --- | --- | --- | --- | --- |
| YEELQITAGRHGDDLRNTK (listed as Homo sapiens) [peptide 1] | induced activation of ERK and Akt | induced activation of p38 MAPK | did not induce degradation of IκB and activation of p65 NFκB | further enhanced lymphoblast formation | Lymphoblast formation was observed | 0/5 | 3/22 | remarkable T cell proliferation induction potency | tended to increase | far higher binding level | enhanced expression of RANKL and CD3 | not expressed | increased expression of RANKL | tumentia of lower jaw lymph node | alveolar bone destruction was observed | remarkable differentiation into polynuclear giant cells | remarkably increased | remarkably increased expression | formation of a marked bone resorption pit |
| Full-length human Keratin 6: full-length human Keratin 6 protein, parental protein of peptide 1 (protein, UniProt P02538 1-564, looked up, full-length) MASTSTTIRSHSSSRRGFSANSARLPGVSRSGFSSVSVSRSRGSGGLGGACGGAGFGSRSLYGLGGSKRISIGGGSCAISGGYGSRAGGSYGFGGAGSGFGFGGGAGIGFGLGGGAGLAGGFGGPGFPVCPPGGIQEVTVNQSLLTPLNLQIDPTIQRVRAEEREQIKTLNNKFASFIDKVRFLEQQNKVLETKWTLLQEQGTKTVRQNLEPLFEQYINNLRRQLDSIVGERGRLDSELRGMQDLVEDFKNKYEDEINKRTAAENEFVTLKKDVDAAYMNKVELQAKADTLTDEINFLRALYDAELSQMQTHISDTSVVLSMDNNRNLDLDSIIAEVKAQYEEIAQRSRAEAESWYQTKYEELQVTAGRHGDDLRNTKQEIAEINRMIQRLRSEIDHVKKQCANLQAAIADAEQRGEMALKDAKNKLEGLEDALQKAKQDLARLLKEYQELMNVKLALDVEIATYRKLLEGEECRLNGEGVGQVNISVVQSTVSSGYGGASGVGSGLGLGGGSSYSYGSGLGVGGGFSSSSGRAIGGGLSSVGGGSSTIKYTTTSSSSRKSYKH |  |  |  | further enhanced lymphoblast formation | Lymphoblast formation was observed | 2/5 | 13/22 | remarkable T cell proliferation induction potency | tended to increase |  |  | not expressed | increased expression of RANKL | tumentia of lower jaw lymph node | alveolar bone destruction was observed | remarkable differentiation into polynuclear giant cells | remarkably increased |  | formation of a marked bone resorption pit |
